Columns and labels:
[1] = test system: HaCaT cell line infected with HHV-1; assay: Cell Count Assay (NucleoCounter NC-3000), HHV-1 infected cells; type: cell-based, human; conditions: Control + acyclovir, HHV-1 infected HaCaT
Method: Next, cell viability additionally in the presence of the Herpes virus was investigated with a Cell Count Assay (NucleoCounter NC-3000). An HHV-1 suspension was added to HaCaT cell line and incubated for 1 hour to enable adsorption of virus to cells; the cells were then incubated with the extract, in the respective dilution ratios, for 24 hrs.

[2] = test system: HaCaT cell line infected with HHV-1; assay: Vitality VB-48 Assay, HHV-1 infected cells; type: cell-based, human; conditions: Control + acyclovir, mean
Method: Vitality VB-48 Assay (NucleoCounter NC-3000) was used to determine the percentage estimation of keratinocytes of varied degrees of viability after 24 h incubation with Kalanchoe daigremontiana extract.
An HHV-1 suspension was added to HaCaT cell line and incubated for 1 hour to enable adsorption of virus to cells. Afterwards, the cells were incubated with a plant extract of the respective dilution for 24 hrs to assess the viability of the keratinocytes with HHV-1 incubated with the respective dilutions of the extract of the invention as compared with Acyclovir.

HHV-1 = assay: Confocal microscopy, direct immunofluorescence staining of infected HaCaT cells; type: cell-based, Human herpesvirus 1; conditions: acyclovir added to infected HaCaT; 48 hrs after infection; FIG. 19
Source text: Confocal microscopy (microscope magnification—60×, digital zoom) was used to view the cell structure status and positioning 48 hrs after infection with HHV-1 (FIG. 18). The method of direct immunofluorescence staining wherein the nucleus—blue (A), viral antigen —green (B), actin—red (C), nucleus/actin (D) helps further understand the structural changes in the cells. The same confocal microscopy technique was used to view the cell structure status and positioning after HHV-1 infection and treatment with Kalanchoe daigremontiana. As before the method of direct immunofluorescence staining is nucleus—blue (A), viral antigen—green (B), actin—red (C), nucleus/actin (D).

Nc1nc2c(ncn2COCCO)c(=O)[nH]1 [acyclovir]
All cells Cell % [1]: 79.67%
All cells Mean intensity [1]: 160070.3
All cells Number of cells [1]: 7648
Dead cells Cell % [1]: 24.05%
Dead cells Mean intensity [1]: 152872.9
Dead cells Number of cells [1]: 5683
Viability [%] [1]: 25.7%
Viability [%] ([1]; listed as Acyclovir): 25%
dead cells % [2]: 77.1%
healthy cells % [2]: 3.27%
lower viability cells % [2]: 19.51%
amount of viral antigen (HHV-1): lower amount of viral antigen

— patent publication US20200276256A1, “SKIN CARE COMPOSITION” (ISN Pharma SP.Z.O.O., priority 2017, published 2020)
